Measured values taken from a flash point compilation (Sun et al. 2020).

Row | Compound | flash point [°C]
1 | C=CCO[Si](C)(C)C [Allyloxytrimethylsilane] | 0.00
2 | CC(C)C[Si](Cl)(Cl)Cl [Isobutyltrichlorosilane] | 37.00
3 | CCC[Si](C)(Cl)Cl [n-Propylmethyldichlorosilane] | 27.00
4 | CCCC(C)[Si](Cl)(Cl)Cl (stereo not given) [sec-Amyltrichlorosilane] | 30.00
5 | Cl[Si](Cl)(Cl)c1ccccc1 [Phenyltrichlorosilane] | 91.00
6 | C[SiH](C)c1c(F)c(F)c(F)c(F)c1F [Dimethyl(pentafluorophenyl) silane] | 40.00
7 | CO[Si](C)(C)OC [Dimethyldimethoxysilane] | -8.00
8 | ClC[Si](Cl)(Cl)Cl [Trichloro(Chloromethyl) silane] | 69.00
9 | C[Si](C)(C)O[Si](C)(C)O[Si](C)(C)O[Si](C)(C)Cl [1-Chlorononamethyltetrasiloxane] | 74.00
10 | Cl[Si](Cl)(c1ccccc1)c1ccccc1 [Diphenyldichlorosilane] | 142.00
11 | CC[Si](OC(C)=O)(OC(C)=O)OC(C)=O [Ethyltriacetoxysilane] | 104.00
12 | CCCO[Si](C)(C)C [Trimethyl-n-propoxysilane] | 10.00
13 | C[Si]1(C)O[Si](C)(C)O[Si](C)(C)O[Si](C)(C)O[Si](C)(C)O1 [Decamethylcyclopentasiloxane] | 77.00
14 | CC[Si](C)(C)Cl [ETHYLDIMETHYLCHLOROSILANE] | -4.00
15 | C[Si](C)(Cl)CCC(F)(F)F [Chlorodimethyl(3,3,3-trifluoropropyl) silane] | 20.00
16 | CCO[Si](OCC)(OCC)c1ccccc1 [Phenyltriethoxysilane] | 120.00
17 | CO[Si](CCCCl)(OC)OC [3-Chloropropyltrimethoxysilane] | 75.00
18 | CC(C)(C)[Si](C)(C)Cl [t-Butyldimethylchlorosilane] | 22.00
19 | CCCC[Si](Cl)(Cl)Cl [n-Butyltrichlorosilane] | 54.00
20 | CCN(CC)[Si](C)(C)N(CC)CC [Bis(diethylamino)dimethylsilane] | 35.00
21 | CCO[Si](C)(C)OCC [Dimethyldiethoxysilane] | 11.00

Row | Compound | flash point [°C]
22 | C[Si](C)(C)O[Si](C)(C)O[Si](C)(C)O[Si](C)(C)O[Si](C)(C)O[Si](C)(C)C [Tetradecamethylhexasiloxane] | 102.00
23 | C[Si]1(C)O[Si](C)(C)O[Si](C)(C)O1 [Hexamethylcyclotrisiloxane] | 32.00
24 | CC(C)(C)[Si](C)(C)O [t-Butyldimethylsilanol] | 45.00
25 | CO[Si](OC)(c1ccccc1)c1ccccc1 [Diphenyldimethoxysilane] | 121.00
26 | CO[Si](C)(OC)OC [Methyltrimethoxysilane] | 11.00
27 | C[SiH](C)O[Si](C)(C)C [Pentamethyldisiloxane] | -19.00
28 | F[Si](F)(F)c1ccccc1 [Phenyl trifluorosilane] | -5.00
29 | C[Si](Cl)(Cl)CCC#N [2-Cyanoethylmethyldichlorosilane] | 60.00
30 | CO[Si](C)(OC)c1ccccc1 [Methyl phenyldimethoxysilane] | 76.00
31 | CO[SiH](OC)OC [Trimethoxysilane] | -9.00
32 | Cl[Si](Cl)(Cl)CCc1ccccc1 [Trichloro(2-phenylethyl)silane] | 91.00
33 | C=C[Si]1(C)O[Si](C)(C=C)O[Si](C)(C=C)O[Si](C)(C=C)O1 (stereo not given) [2,4,6,8-Tetravinyl-2,4,6,8-tetramethylcyclotetrasiloxane] | 112.00
34 | C=C(CCl)C[Si](C)(C)C [2-Chloromethyl-3-trimethylsilyl-1-propene] | 43.00
35 | C[Si](C)(C)c1ccc(Cl)cc1 [p-Chlorophenyltrimethylsilane] | 49.00
36 | CN([Si](C)(C)C)[Si](C)(C)C [Heptamethyldisilazane] | 27.00
37 | C=C[Si](C)(C)C=C [Divinyldimethylsilane] | 8.00
38 | CCCCCCCCCCCCCCCC[Si](Cl)(Cl)Cl [Hexadecyltrichlorosilane] | 154.00
39 | CC(C)(C)[Si](C)(Cl)C(C)(C)C [Di-t-butylmethylchlorosilane] | 69.00
40 | C=C[Si](OCCOC)(OCCOC)OCCOC [Vinyltris(methoxyethoxy)silane] | 80.00
41 | C[Si](C)(C)C [Tetramethylsilane] | -28.00
42 | C[Si](C)(C)N=C=S [Trimethylsilylisothiocyanate] | 35.00

Row | Compound | flash point [°C]
43 | CCC[Si](OC)(OC)OC [n-Propyltrimethoxysilane] | 25.00
44 | C[Si](C)(Cl)Cl [Dimethyldichlorosilane] | -16.00
45 | CN(C)[Si](C)(C)N(C)C [Bis(dimethylamino)dimethylsilane] | -7.00
46 | CCCCCC#C[Si](C)(C)C [1-Heptynyltrimethylsilane] | 42.00
47 | Clc1cccc([Si](Cl)(Cl)Cl)c1Cl [Trichloro(dichlorophenyl)silane] | 146.00
48 | [SiH3]c1ccccc1 [Phenylsilane] | 8.00
49 | C=C[Si](OC(C)=O)(OC(C)=O)OC(C)=O [Vinyltriacetoxysilane] | 88.00
50 | FC(F)(F)CC[Si](Cl)(Cl)Cl [Trichloro(3,3,3-trifluoropropyl)silane] | 15.00
51 | C[Si](C)(C)Cc1ccccc1 [Benzyltrimethylsilane] | 62.00
52 | CC(C)(C)O[Si](C)(C)C [t-Butoxytrimethylsilane] | 14.00
53 | C[Si](C)(C)O[Si](C)(C)O[Si](C)(C)C [Octamethyltrisiloxane] | 30.00
54 | C[Si](Cl)(c1ccccc1)c1ccccc1 [Methyldiphenylchlorosilane] | 138.00
55 | C[SiH](C)Cl [Dimethylchlorosilane] | -28.00
56 | C[Si](C)(C)F [Trimethylfluorosilane] | -35.00
57 | CCCCCC[Si](OC)(OC)OC [Hexyltrimethoxysilane] | 62.00
58 | CCCCCCCC[Si](Cl)(Cl)Cl [n-Octyltrichlorosilane] | 96.00
59 | C=C[Si](C)(CC)CC [Vinyldiethylmethylsilane] | 15.00
60 | C[Si](C)(C)CCOCCl [[2-(chloromethoxy)ethyl]trimethylsilane] | 46.00
61 | CC[SiH2]CC [Diethylsilane] | -20.00
62 | CCO[Si](C)(OCC)OCC [Methyltriethoxysilane] | 24.00

Remark: another data set of the same source

Row | Compound | flash point [°C]
63 | CCCCC(C)O (stereo not given) [2-Hexanol] | 45.0
64 | CCCCCC(=O)CCCCC [6-Undecanone] | 88.4
65 | Cc1ccc(C)c(C)c1 [1,2,4-TRIMETHYL BENZENE] | 45.5
66 | CC(C)CO [2-Methyl-1-propanol] | 29.2
67 | CCC(C)(O)CC [3-Pentanol, 3-methyl-] | 24.0
68 | CCC(O)CC [3-PENTANOL] | 27
69 | CCCCCCS [1-Hexanethiol] | 32.5
70 | CCCCCC#N [HEXANENITRILE] | 47
71 | CCCCCCCCCO [1-Nonanol] | 96.0
72 | CCCCCCCC [Octane] | 14.0
73 | CCCCC(CC)CO (stereo not given) [2-Ethylhexanol] | 73
74 | CCN(CC)CC [TRIETHYLAMINE] | -15.0
75 | Cc1ccccn1 [Pyridine, 2-methyl-] | 26.0
76 | CCc1ccccc1CC [1,2-Diethylbenzene] | 57.2
77 | CCC(C)CO (stereo not given) [1-Butanol, 2-methyl-] | 43.0
78 | CCCCCCN [1-Hexanamine] | 27.0
79 | CCCOC(C)=O [Propyl acetate] | 10.6
80 | CCCCS [Butanethiol] | 1.0
81 | CCCS [1-Propanethiol] | -19.9
82 | CCCCCCCCCCCO [1-Undecanol] | 113.0
83 | CN(C)c1ccccc1 [N,N-DIMETHYLANILINE] | 62.0
84 | CCc1cccc(C)c1 [m-Ethyltoluene] | 38.0

Row | Compound | flash point [°C]
85 | C=CC(C)(C)C [1-Butene, 3,3-dimethyl-] | -31.9
86 | CCCCCCC(=O)O [Heptanoic acid] | 115.0
87 | C=CCCC [1-PENTENE] | -54
88 | Cc1cccc(C)c1O [2,6-Dimethylphenol] | 85.0
89 | CC(C)C(C)O (stereo not given) [2-Butanol, 3-methyl-] | 26.0
90 | CCN(CC)CC [Triethylamine] | -11.0
91 | CCCCC(C)CCCC [Nonane, 5-methyl-] | 39
92 | Oc1ccccc1 [PHENOL] | 80
93 | CCCCCCCCCCCO [1-UNDECANOL] | 115
94 | CCCCCCCCC=O [1-Nonanal] | 63.0
95 | Cc1ccc(C)cc1 [1,4-Dimethylbenzene] | 26
96 | CCCCC1CCCCC1 [Cyclohexane, butyl-] | 52.5
97 | CCCCCOC(C)=O [Amyl acetate] | 37.0
98 | Cc1ccc(O)c(C)c1 [2,4-Dimethylphenol] | 95.0
99 | CCc1ccc(CC)cc1 [1,4-Diethylbenzene] | 57
100 | CNc1ccccc1 [Benzenamine, N-methyl-] | 78
101 | CCOCCOCCO [Ethanol, 2-(2-ethoxyethoxy)-] | 90.0
102 | CCCOCC [Propane, 1-ethoxy-] | -19.9
103 | CCC1CCCC1 [Cyclopentane, ethyl-] | -0.0
104 | CCCCCC(C)=O [2-Heptanone] | 39.0
105 | NCCCCCCN [1,6-Hexanediamine] | 81.0
